Columns and labels:
Type in all cases: cell-based
[1] = tested on: A549 human lung carcinoma cells; assay: MTS cell viability assay, A549 human lung carcinoma cells; settings: A549, 4 h compound incubation, MTS, read-out: IC50 Values, Cancerous Cells, Lung A549
[2] = tested on: DLD-1 human colon carcinoma cells; assay: MTS cell viability assay, DLD-1 human colon carcinoma cells; settings: DLD-1, 4 h compound incubation, MTS, read-out: IC50 Values, Cancerous Cells, Colon DLD-1
[3] = tested on: DU-145 human prostate carcinoma cells; assay: MTS cell viability assay, DU-145 human prostate carcinoma cells; settings: DU-145, 4 h compound incubation, MTS, read-out: IC50 Values, Cancerous Cells, Prostate DU-145
[4] = tested on: K-562 human leukemia cells; assay: MTS cell viability assay, K-562 human leukemia cells; settings: K562, K-562, 4 h compound incubation, MTS, read-out: IC50 Values, Cancerous Cells, Leukemia K-562
[5] = tested on: PACA-2 human pancreatic carcinoma cells; assay: MTS cell viability assay, PACA-2 human pancreatic carcinoma cells; settings: PACA-2, 4 h compound incubation, MTS, read-out: IC50 Values, Cancerous Cells, Pancreas PACA-2
[6] = tested on: NCM-460 normal colon epithelial cells; assay: MTS cell viability assay, NCM-460 normal colon epithelial cells; settings: for IC50: Homo sapiens, NCM460, NCM-460, 4 h compound incubation, MTS, read-out: IC50 Values, Normal Cells, Colon NCM-460; for Fold Selectivity (NCM-460/DLD1): ratio of IC50 NCM-460 / DLD1

Compound	IC50 [1] [µM]	IC50 [2] [µM]	IC50 [3] [µM]	IC50 [4] [µM]	IC50 [5] [µM]	IC50 [6] [µM]	Fold Selectivity (NCM-460/DLD1) [6]
O=C(O)CCC(=O)N1CCC2(CC1)CSC1=C(O2)c2ccccc2C(=O)C1=O [Compound 233, 4-(5,6-dioxo-5,6-dihydro-1′H-spiro[naphtho[1,2-b][1,4]oxathiine-2,4′-piperidin]-1′-yl)-4-oxobutanoic acid]	> 100	64.3	40.4	62.8	56.3	48.8	0.8
O=C1C(=O)c2ccccc2C2=C1SCC1(CCN(C(=O)Nc3cccc(C(F)(F)F)c3)CC1)O2 [Compound 86, 5,6-dioxo-N-[3-(trifluoromethyl)phenyl]-5,6-dihydro-1′H-spiro[naphtho[1,2-b][1,4]oxathiine-2,4′-piperidine]-1′-carboxamide]	3.84	1.48	1.03	2.17	1.33	10.1	6.8
C=CCCN1CCC2(CC1)CSC1=C(O2)c2ccccc2C(=O)C1=O [Compound 143, 1′-but-3-en-1-ylspiro[naphtho[1,2-b][1,4]oxathiine-2,4′-piperidine]-5,6-dione]	7.39	2.14	4.26	3.29	2.5	6.39	3.0
CC(C)CN1CCC2(CC1)CSC1=C(O2)c2ccccc2C(=O)C1=O [Compound 126, 1′-isobutylspiro[naphtho[1,2-b][1,4]oxathiine-2,4′-piperidine]-5,6-dione]	5	3.12	4.05	1.63	1.44	5.26	1.7
CCCCC(CC)COC(=O)N1CCC2(CC1)CSC1=C(O2)c2ccccc2C(=O)C1=O (centres unmarked) [Compound 95, 2-ethylhexyl 5,6-dioxo-5,6-dihydro-1′H-spiro[naphtho[1,2-b][1,4]oxathiine-2,4′-piperidine]-1′-carboxylate]	51.4	10.9	5.13	12.3	4.72	37.7	3.5
O=C1C(=O)c2ccccc2C2=C1SCC1(CCN(C3CCCC3)CC1)O2 [Compound 138, 1′-cyclopentylspiro[naphtho[1,2-b][1,4]oxathiine-2,4′-piperidine]-5,6-dione]	7.8	1.43	2.52	1.43	1.48	3.55	2.5
O=C1C(=O)c2ccccc2C2=C1SCC1(CCN(CCOc3ccc(Cl)cc3)CC1)O2 [Compound 145, 1′-[2-(4-chlorophenoxy)ethyl]spiro[naphtho[1,2-b][1,4]oxathiine-2,4′-piperidine]-5,6-dione]	5.55	3.8	4.03	7.87	2.74	21	5.5
O=C1C(=O)c2ccccc2C2=C1SCC1(CCN(CCCC(F)(F)F)CC1)O2 [Compound 141, 1′-(4,4,4-trifluorobutyl)spiro[naphtho[1,2-b][1,4]oxathiine-2,4′-piperidine]-5,6-dione]	5.01	1.95	4.01	2.39	2.44	8.13	4.2
CN(C)c1cccc(C(=O)N2CCC3(CC2)CSC2=C(O3)c3ccccc3C(=O)C2=O)c1 [Compound 46, 1′-[3-(dimethylamino)benzoyl]spiro[naphtho[1,2-b][1,4]oxathiine-2,4′-piperidine]-5,6-dione]	> 100	5.26	5.03	9.61	4.24	28.6	5.4
O=C1C(=O)c2ccccc2C2=C1SCC1(CCN(C(=O)Oc3ccccn3)CC1)O2 [Compound 112, pyridin-2-yl 5,6-dioxo-5,6-dihydro-1′H-spiro[naphtho[1,2-b][1,4]oxathiine-2,4′-piperidine]-1′-carboxylate]	11.2	1.54	3.99	2.97	1.83	6.3	4.1
CC(C)(C)c1ccc(OCC(O)CN2CCC3(CC2)CSC2=C(O3)c3ccccc3C(=O)C2=O)cc1 (centres unmarked) [Compound 157, 1′-[3-(4-tert-butylphenoxy)-2-hydroxypropyl]spiro[naphtho[1,2-b][1,4]oxathiine-2,4′-piperidine]-5,6-dione]	8.03	3.63	2.26	7.6	2.08	28.2	7.8
CC(C(=O)Nc1ccccc1)N1CCC2(CC1)CSC1=C(O2)c2ccccc2C(=O)C1=O (centres unmarked) [Compound 134, 2-(5,6-dioxo-5,6-dihydro-1′H-spiro[naphtho[1,2-b][1,4]oxathiine-2,4′-piperidin]-1′-yl)-N-phenylpropanamide]	23.3	3.94	6.87	7.22	4.43	15.6	4.0
CN(C)c1ccc(NC(=O)N2CCC3(CC2)CSC2=C(O3)c3ccccc3C(=O)C2=O)cc1 [Compound 88, N-[4-(dimethylamino)phenyl]-5,6-dioxo-5,6-dihydro-1′H-spiro[naphtho[1,2-b][1,4]oxathiine-2,4′-piperidine]-1′-carboxamide]	13.3	1.49	4.33	2.14	1.85	6.08	4.1
O=C1C(=O)c2ccccc2C2=C1SCC1(CCN(CC(O)CC(F)(F)F)CC1)O2 (centres unmarked) [Compound 160, 1′-(4,4,4-trifluoro-2-hydroxybutyl)spiro[naphtho[1,2-b][1,4]oxathiine-2,4′-piperidine]-5,6-dione]	6.72	1.69	3.92	1.53	1.55	5.56	3.3
Cc1noc(C)c1C(=O)N1CCC2(CC1)CSC1=C(O2)c2ccccc2C(=O)C1=O [Compound 40, 1′-[(3,5-dimethylisoxazol-4-yl)carbonyl]spiro[naphtho[1,2-b][1,4]oxathiine-2,4′-piperidine]-5,6-dione]	15.5	4.09	14.4	3.92	8.39	10.2	2.5
O=C1C(=O)c2ccccc2C2=C1SCC1(CCN(C(=O)c3ccncc3)CC1)O2 [Compound 57, 1′-isonicotinoylspiro[naphtho[1,2-b][1,4]oxathiine-2,4′-piperidine]-5,6-dione]	24.8	4.29	12.2	4.37	5.36	9.91	2.3
O=C1C(=O)c2ccccc2C2=C1SCC1(CCN(CC(O)COCc3ccccc3)CC1)O2 (centres unmarked) [Compound 171, 1′-[3-(benzyloxy)-2-hydroxypropyl]spiro[naphtho[12-b][1,4]oxathiine-2,4′-piperidine]-5,6-dione]	6.55	1.34	3.22	3.6	1.46	9.69	7.2

— patent publication US7902354B2, “Lapachone compounds and methods of use thereof” (ArQule, Inc., priority 2006, dated 2011)
